From patent US5916785A, “Process of oxidizing alcohols or carboxylic acids with alcohol/aldehyde dehydrogenase from gluconobacter” (Roche Vitamins Inc., priority 1992, dated 1999)

Assays:
AADH [1] = assay: Measurement of the Km (Michaelis constant) values, DCIP/PMS enzyme assay; assay type: biochemical, Gluconobacter oxydans DSM No. 4025; conditions: mixture of DCIP and PMS as electron acceptors; 25° C., pH 8.0; read-out: apparent Michaelis constant (Km)
AADH [2] = assay: Effect of metal ions on the enzyme activity; assay type: biochemical, Gluconobacter oxydans DSM No. 4025; conditions: standard DCIP/PMS assay
Excerpt: Using the assay procedure described under section 1), the effect of various metal ions on the enzyme activity was examined. […] The others affected the enzyme activity strongly or moderately.

AADH [3] = assay: Effect of inhibitors on the enzyme activity; assay type: biochemical, Gluconobacter oxydans DSM No. 4025; conditions: standard DCIP/PMS assay
AADH [4] = conditions: substrate used instead of L-sorbose
Method: The enzyme assay was performed at 25° C. by measuring the decrease of absorbance at 600 nm of DCIP with a spectrophotometer (UVIKON 810, Kontron K.K.). One unit of the enzyme activity was defined as the amount of the enzyme which catalyzed the reduction of 1 μmole of DCIP per minute. The extinction coefficient of DCIP at pH 8.0 was taken as 15 mMol^-1. The standard reaction mixture (1.0 ml) contained 0.1 mMol DCIP, 1 mMol PMS, 125 mMol L-sorbose, 50 mMol Tris-malate-NaOH buffer (pH 8.0), and 3-8 μl of the enzyme solution. A reference cuvette contained all the above components except the substrate.
The substrate specificity of AADH was determined using the same enzyme assay method as described under section 1) above, except that various further substrates were used instead of L-sorbose.

SMILES	effect of metal ions on the AADH enzyme activity (AADH [2])	also measured
CCCO [1-propanol]		Km (AADH [1]): 2000 µM
[Ca+2] [Ca^2+]	did not affect	
[Cu+2] [Cu^2+]	strong inhibitors	
O=C(O)CN(CCN(CC(=O)O)CC(=O)O)CC(=O)O [EDTA, Ethylenediamine tetraacetic acid]		effect of inhibitors on the AADH enzyme activity (AADH [3]): strongly inhibited
O=C(O)CN(CCOCCOCCN(CC(=O)O)CC(=O)O)CC(=O)O [EGTA, ethylene glycol bis(beta-aminoethylether)-N,N,N',N'-tetraacetic acid]		effect of inhibitors on the AADH enzyme activity (AADH [3]): strongly inhibited
[Fe+3] [Fe^3+]	strong inhibitors	
[Mg+2] [Mg^2+]	did not affect	
[Mn+2] [Mn^2+]	strong inhibitors	
CCO [ethanol]		oxidation as substrate by AADH (AADH [4]): good substrate
CO [methanol]		oxidation as substrate by AADH (AADH [4]): hardly oxidizes
